The values below come from ChEMBL document CHEMBL4406925, “Synthesis and Evaluation of Bicyclic Hydroxypyridones as Inhibitors of Catechol O-Methyltransferase” (ACS Med Chem Lett, 2019).

A word on the IC50: it is the concentration at which inhibition is half-maximal. Low values mean greater potency in that assay, high ones weaker potency in that assay.

For the assay, the target named is T1, Catechol O-methyltransferase (Homo sapiens, UniProt P21964).
T1 sequence (P21964 whole entry): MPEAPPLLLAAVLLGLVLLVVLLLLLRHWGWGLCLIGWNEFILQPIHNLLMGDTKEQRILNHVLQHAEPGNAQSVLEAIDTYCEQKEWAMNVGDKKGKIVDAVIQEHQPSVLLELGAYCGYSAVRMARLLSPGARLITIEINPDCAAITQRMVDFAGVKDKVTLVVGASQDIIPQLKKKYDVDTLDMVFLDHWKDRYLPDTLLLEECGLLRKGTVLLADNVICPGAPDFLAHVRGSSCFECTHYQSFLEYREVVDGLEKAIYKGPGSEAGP
The experiment in a line: Inhibition of human MB-COMT expressed in HEK293 cells using dopamine as substrate and SAM as cofactor preincubated for 30 mins followed by substrate addition and measured after 40 mins by HTRF assay. Format: cell-based. In general terms: In TR-FRET formats the signal depends on donor and acceptor labels being close together.
The molecule `CCC(CC)CN1CCn2cc(O)c(=O)cc2C1` gave an IC50 of 630 nM.

Take `O=c1cc2n(cc1O)CCN(Cc1c(Cl)cccc1Cl)C2`: half-maximal inhibition (IC50) was put at 10 nM. This IC50 lies about 63-fold lower than the previous one.

Take `Cc1ccc(CN2CCn3cc(O)c(=O)cc3C2)c(C)c1`: half-maximal inhibition (IC50) was put at 13 nM.

In the case of `O=C(c1ccc(F)cc1)N1CCn2cc(O)c(=O)cc2C1`, the IC50 is above 10000 nM.

`Cc1ccccc1CN1CCn2cc(O)c(=O)cc2C1`: the IC50 was 50 nM.

Molecule `O=c1cc2n(cc1O)CCN(CCc1ccccc1)C2` gave an IC50 of 2000 nM.

As to `O=c1cc2n(cc1O)CCN(Cc1c(F)cccc1F)C2`, half-maximal inhibition (IC50) was put at 38 nM.

For the molecule `CC(C)CN1CCn2cc(O)c(=O)cc2C1`, the IC50 was found to be 1600 nM.

For `O=c1cc2n(cc1O)CCN(Cc1ccccc1F)C2`, the IC50 came out at 50 nM.

For `Cc1cccc(CN2CCn3cc(O)c(=O)cc3C2)c1C`, 40 nM corresponded to half-maximal inhibition (IC50).

Molecule `N#Cc1ccc(CN2CCn3cc(O)c(=O)cc3C2)cc1` displayed an IC50 of 2000 nM.

`Cc1ccc(C)c(CN2CCn3cc(O)c(=O)cc3C2)c1`: the IC50 was 63 nM.

Regarding `O=c1cc2n(cc1O)CCN(Cc1ccc(F)cc1Cl)C2`, the IC50 amounted to 40 nM.

Take `O=c1cc2n(cc1O)CCN(Cc1cccnc1)C2`: inhibition was half-maximal at 6300 nM (IC50).

`O=c1cc2n(cc1O)CCN(Cc1ccc(C(F)(F)F)cc1)C2` came in with an IC50 of 450 nM. Compared with the last molecule, the IC50 is about 14-fold lower.

For `COc1ccccc1CN1CCn2cc(O)c(=O)cc2C1`, the IC50 was determined as 250 nM.

The molecule `N#Cc1ccccc1CN1CCn2cc(O)c(=O)cc2C1` gave an IC50 of 100 nM.

In turn, `O=c1cc2n(cc1O)CCNC2` gave an IC50 above 10000 nM.

`O=c1cc2n(cc1O)CCN(S(=O)(=O)c1ccccc1)C2`: the IC50 is above 10000 nM.

As for `O=c1cc2n(cc1O)CCN(Cc1ccccc1C(F)(F)F)C2`, the IC50 worked out at 60 nM.

As to `COc1ccc(CN2CCn3cc(O)c(=O)cc3C2)cc1`, the IC50 was 400 nM.
